Consider 54 molecules from patent US20170253581A1, “SUBSTITUTED HETEROCYCLES AS c-MYC TARGETING AGENTS” (Northwestern University, priority 2016, published 2017).

Structures are written as SMILES.

The target of this assay is Myc/Max binding to DNA (Homo sapiens, UniProt P01106). The assay is described as follows: Electrophoretic mobility shift assay (EMSA) of Myc/Max binding to DNA. Type of assay: biochemical. As to conditions: EMSA; for remaining activity at 50 µM: read-out: Bound DNA (%) (50uM); for remaining activity at 100 µM / Bound DNA (%) (100uM): 100 uM test compound; for remaining activity at 100 µM: read-out: Bound DNA (%) (100uM). In short, it runs like this: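 Electrophoretic mobility shift assay of Myc/Max binding to DNA. Compounds tested at 200 μM, 100 μM and 50 μM.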
Myc/Max binding to DNA, sequence (P01106 whole entry): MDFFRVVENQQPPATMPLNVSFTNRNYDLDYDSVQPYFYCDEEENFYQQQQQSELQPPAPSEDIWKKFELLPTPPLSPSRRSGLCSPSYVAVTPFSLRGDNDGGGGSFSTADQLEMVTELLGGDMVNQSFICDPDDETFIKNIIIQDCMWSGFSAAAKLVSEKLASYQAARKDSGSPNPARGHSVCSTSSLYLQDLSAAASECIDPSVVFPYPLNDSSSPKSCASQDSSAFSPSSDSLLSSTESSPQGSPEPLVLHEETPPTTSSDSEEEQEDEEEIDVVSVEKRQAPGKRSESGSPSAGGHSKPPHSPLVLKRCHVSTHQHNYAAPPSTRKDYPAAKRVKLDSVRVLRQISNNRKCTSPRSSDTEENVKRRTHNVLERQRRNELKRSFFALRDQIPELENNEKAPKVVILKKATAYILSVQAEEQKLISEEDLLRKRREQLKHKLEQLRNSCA

With `CN1CCN(c2ccc(-c3cc(C(F)(F)F)[nH]n3)c(O)c2)CC1` [compound 0200567], the remaining activity at 100 µM is 115%. In addition, under “50 uM test compound”, the remaining activity at 50 µM was 117%.
The corresponding values for `CN1CCN(c2ccc(-c3cc(C(F)(F)F)n(C)n3)c(O)c2)CC1` [compound 0200568] are 93% and 109%.
`Oc1cc(Nc2ccc(-n3ccnc3)cc2)ccc1-c1cc(C(F)(F)F)[nH]n1` [compound 0200569]: the remaining activity at 100 µM was found to be 91%. Moreover, the remaining activity at 50 µM (50 uM test compound) is 89%.
The corresponding values for `Oc1cccc(OCc2ccc(Cl)cc2)c1-c1cc(C(F)(F)F)n[nH]1` [compound 0200570] are 83% and 85%.
With `N#Cc1cccc(-c2c(C(F)(F)F)n[nH]c2-c2cc(OCc3ccc(Cl)cc3)ccc2O)c1` [compound 0200571], the remaining activity at 100 µM was found to be 72%. The remaining activity at 50 µM (50 uM test compound) was determined as 87%.
Take `Cc1ccc(-c2c(C(F)(F)F)n[nH]c2-c2cc(OCc3ccc(Cl)cc3)ccc2O)cc1` [compound 0200572]: the remaining activity at 100 µM amounted to 78%. Further, under “50 uM test compound”, the remaining activity at 50 µM came to 85%.
`Oc1ccc(OCc2ccc(Cl)cc2)cc1-c1cc(C(F)(F)F)n[nH]1` [compound 0200573]: the remaining activity at 100 µM amounted to 102%.
Still for that read-out and setting: the same measure for `Oc1ccccc1-c1cc(C(F)(F)F)n[nH]1` [compound 0200574]: 107%; for `Oc1ccc(OCc2ccc(Cl)cc2)cc1-c1[nH]nc(C(F)(F)F)c1-c1ccc(F)cc1` [compound 0200575]: 13%; for `Oc1ccc(OCc2ccc(Cl)cc2)cc1-c1[nH]nc(C(F)(F)F)c1-c1ccccc1Cl` [compound 0200576]: 3%.
For `FC(F)(F)c1cc2n(n1)-c1ccccc1Oc1cc(OCc3ccc(Cl)cc3)ccc1-2` [compound 0200577], the remaining activity at 100 µM was found to be 100%.
As to `NC(=O)c1cc(-c2ccc(Nc3ccc(Cl)cc3)cc2O)n[nH]1` [compound 0200677], the remaining activity at 100 µM is 102%.
On the same count and under the same terms, the same measure for `N#Cc1cc(-c2ccc(Nc3ccc(Cl)cc3)cc2O)n[nH]1` [compound 0200678]: 104%.
For the molecule `Oc1cc(Nc2ccc(Cl)cc2)ccc1-c1cc(C(F)(F)F)[nH]n1` [compound 0200679], the “Bound DNA (%) (100uM)” value turned out to be 38%. In addition, the “Bound DNA (%) (50uM)” value (50 uM test compound) turned out to be 79%.
`CCc1ccc(Oc2c(-c3ccc(Nc4ccc(Cl)cc4)cc3O)n[nH]c2C(F)(F)F)cc1` [compound 0200680]: the remaining activity at 100 µM was determined as 40%. The remaining activity at 50 µM (50 uM test compound) amounted to 96%.
The corresponding values for `CCc1ccc(Oc2c(-c3ccc(Oc4ccc(Cl)cc4)cc3O)n[nH]c2C(F)(F)F)cc1` [compound 0200681] are 8% and 90%.
On to `CCc1ccc(Oc2c(-c3ccc(O)cc3O)nn(C)c2C(F)(F)F)cc1` [compound 0200682], for which the “Bound DNA (%) (100uM)” value turned out to be 95%. For the same molecule, under “50 uM test compound”, the remaining activity at 50 µM came out at 101%.
With `CCc1ccc(Oc2c(-c3ccccc3O)n[nH]c2C(F)(F)F)cc1` [compound 0200683], the remaining activity at 100 µM amounted to 20%. In addition, the remaining activity at 50 µM (50 uM test compound) was found to be 87%.
Consider `CCc1ccc(Oc2c(-c3ccccc3O)nn(C)c2C(F)(F)F)cc1` [compound 0200684], for which the remaining activity at 100 µM was found to be 101%. Moreover, the remaining activity at 50 µM (50 uM test compound) turned out to be 102%.
As to `Oc1ccccc1C1=NNC(c2ccccc2)C1` (centres unmarked) [compound 0200685], the remaining activity at 100 µM was found to be 103%. For the same molecule, the remaining activity at 50 µM (50 uM test compound) came out at 102%.
The corresponding values for `Oc1cc(OCc2ccc(Cl)cc2)ccc1-c1[nH]nc(C(F)(F)F)c1-c1ccc2c(c1)OCCO2` [compound 0200686] are 87% and 98%.
For `Cn1nc(C(F)(F)F)cc1-c1ccc(O)cn1` [compound 0200687], the remaining activity at 100 µM is 101%. Further, the remaining activity at 50 µM (50 uM test compound) was 100%.
For the molecule `Cn1nc(C(F)(F)F)cc1-c1ccc(N)cn1` [compound 0200688], the remaining activity at 100 µM worked out at 103%. For the setting “50 uM test compound”, the remaining activity at 50 µM was 102%.
The corresponding values for `Cn1nc(C(F)(F)F)cc1-c1cnc(O)cn1` [compound 0200689] are 98% and 98%.
With `Cn1nc(C(F)(F)F)cc1-c1ccc(OCc2ccc(Cl)cc2)cn1` [compound 0200690], the remaining activity at 100 µM came to 95%. Moreover, the remaining activity at 50 µM (50 uM test compound) came to 98%.
For `Cn1nc(C(F)(F)F)cc1-c1ccc(NCc2ccc(Cl)cc2)cn1` [compound 0200691], the remaining activity at 100 µM amounted to 97%. Also, the remaining activity at 50 µM (50 uM test compound) is 94%.
For the molecule `Cn1nc(C(F)(F)F)cc1-c1cnc(OCc2ccc(Cl)cc2)cn1` [compound 0200692], the remaining activity at 100 µM was 89%. Also, the remaining activity at 50 µM (50 uM test compound) came out at 97%.
As for `Oc1cc(Nc2ccc(Cl)c(Cl)c2)ccc1-c1cc(C(F)(F)F)[nH]n1` [compound 0200721], the remaining activity at 100 µM is 4%. Also, for the setting “50 uM test compound”, the remaining activity at 50 µM was determined as 87%.
Turning to `c1ccc(COc2ccccc2-c2nn[nH]c2-c2ccccc2)cc1` [compound 0200722], the remaining activity at 100 µM stood at 104%.
Turning to `Cn1nc(C(F)(F)F)c(-c2cc(C(F)(F)F)cc(C(F)(F)F)c2)c1-c1ccc(O)cc1O` [compound 0200723], the remaining activity at 100 µM turned out to be 36%. Moreover, the remaining activity at 50 µM (50 uM test compound) was 88%.
Take `Cn1nc(-c2ccc(O)cc2O)c(-c2cc(C(F)(F)F)cc(C(F)(F)F)c2)c1C(F)(F)F` [compound 0200724]: the remaining activity at 100 µM came out at 105%.
Regarding `Oc1cc(OCc2ccc(Cl)cc2)ccc1-c1n[nH]c(C(F)(F)F)c1-c1ccc(C(F)(F)F)cc1` [compound 0200725], the remaining activity at 100 µM came out at 98%.
As to `Cn1nc(C(F)(F)F)c(-c2ccc(C(F)(F)F)cc2)c1-c1ccc(OCc2ccc(Cl)cc2)cc1O` [compound 0200726], the remaining activity at 100 µM was determined as 92%.
Turning to `Cn1nc(-c2ccc(OCc3ccc(Cl)cc3)cc2O)c(-c2ccc(C(F)(F)F)cc2)c1C(F)(F)F` [compound 0200727], the remaining activity at 100 µM stood at 99%.
In the case of `Oc1cc(OCc2ccc(Cl)cc2)ccc1-c1n[nH]c(C(F)(F)F)c1-c1ccc(C(F)(F)F)c(Cl)c1` [compound 0200728], the remaining activity at 100 µM came out at 89%.
As for `Cn1nc(-c2ccc(OCc3ccc(Cl)cc3)cc2O)c(-c2ccc(C(F)(F)F)c(Cl)c2)c1C(F)(F)F` [compound 0200729], the remaining activity at 100 µM is 43%. For the same molecule, the remaining activity at 50 µM (50 uM test compound) was 82%.
The like results for `Oc1cc(OCc2ccc(Cl)cc2)ccc1-c1n[nH]c(C(F)(F)F)c1-c1cccc(C(F)(F)F)c1` [compound 0200730] were, in that order, 77% and 93%.
As to `Cn1nc(-c2ccc(OCc3ccc(Cl)cc3)cc2O)c(-c2cccc(C(F)(F)F)c2)c1C(F)(F)F` [compound 0200731], the remaining activity at 100 µM was found to be 62%. For the same molecule, the remaining activity at 50 µM (50 uM test compound) came to 77%.
Consider `Oc1cc(OCc2ccc(Cl)cc2)ccc1-c1n[nH]c(C(F)(F)F)c1-c1ccc(Cl)c(C(F)(F)F)c1` [compound 0200732], for which the remaining activity at 100 µM is 46%. The remaining activity at 50 µM (50 uM test compound) was found to be 89%.
`Cn1nc(-c2ccc(OCc3ccc(Cl)cc3)cc2O)c(-c2ccc(Cl)c(C(F)(F)F)c2)c1C(F)(F)F` [compound 0200733]: the remaining activity at 100 µM was determined as 97%.
The same measure, in the same setting: in the case of `Oc1cc(OCc2ccc(Cl)cc2)ccc1-c1n[nH]c(C(F)(F)F)c1-c1ccc(F)c(C(F)(F)F)c1` [compound 0200734] it was 91%.
In the case of `Cn1nc(C(F)(F)F)c(-c2ccc(F)c(C(F)(F)F)c2)c1-c1ccc(OCc2ccc(Cl)cc2)cc1O` [compound 0200735], the remaining activity at 100 µM came out at 60%. Where the note is “50 uM test compound”, the remaining activity at 50 µM came out at 84%.
On to `Cn1nc(-c2ccc(OCc3ccc(Cl)cc3)cc2O)c(-c2ccc(F)c(C(F)(F)F)c2)c1C(F)(F)F` [compound 0200736], for which the remaining activity at 100 µM is 86%.
On to `Oc1cc(OCc2ccc(Cl)cc2)ccc1-c1n[nH]c(C(F)(F)F)c1-c1ccc(C(F)(F)F)cc1Cl` [compound 0200737], for which the remaining activity at 100 µM was 76%.
Take `Cn1nc(C(F)(F)F)c(-c2ccc(C(F)(F)F)cc2Cl)c1-c1ccc(OCc2ccc(Cl)cc2)cc1O` [compound 0200738]: the remaining activity at 100 µM turned out to be 18%. For the same molecule, the remaining activity at 50 µM (50 uM test compound) is 91%.
Consider `CCc1c(C(F)(F)F)n[nH]c1-c1ccc(OCc2ccc(Cl)cc2)cc1O` [compound 0200739], for which the remaining activity at 100 µM was found to be 78%.
Turning to `CCCc1c(C(F)(F)F)n[nH]c1-c1ccc(OCc2ccc(Cl)cc2)cc1O` [compound 0200740], the remaining activity at 100 µM stood at 75%. Further, the remaining activity at 50 µM (50 uM test compound) worked out at 93%.
Take `Cn1cc(C(F)(F)F)c(-c2ccc(OCc3ccc(Cl)cc3)cn2)n1` [compound 0200741]: the remaining activity at 100 µM was 103%.
Same read-out and setting: the same measure for `Cn1cc(C(F)(F)F)c(-c2ccc(NCc3ccc(Cl)cc3)cn2)n1` [compound 0200742]: 99%; for `Cn1cc(C(F)(F)F)c(-c2ccc(OCc3ccc(Cl)cc3)cc2F)n1` [compound 0200743]: 101%; for `Cn1nc(C(F)(F)F)cc1-c1ccc(OCc2ccc(Cl)cc2)cc1Cl` [compound 0200744]: 62%.
Same read-out and setting: the same measure for `Cn1nc(C(F)(F)F)cc1-c1ccc(OCc2ccc(Cl)cc2)cc1N` [compound 0200745]: 105%; for `Cn1cc(-c2ccc(OCc3ccc(Cl)cc3)cc2N)c(C(F)(F)F)n1` [compound 0200746]: 101%.
The same measure, in the same setting: in the case of `Cn1cc(C(F)(F)F)c(-c2cnc(OCc3ccc(Cl)cc3)cn2)n1` [compound 0200747] it was 105%.
